Converted amounts (≈) assume the structure as drawn. Read-outs that look alike come from different tables or passages of the source.
What was measured:
B. bigemina = experiment: Babesia fluorescent (SYBR Green I) in vitro growth inhibition assay; format: cell-based; conditions: for IC50: B. bigemina, in vitro, 4 days
Text: (§1) For the in vitro experiments, a German strain B. divergens, Argentine strain B. bigemina, Texas strain B. bovis, were cultivated in cattle RBCs, while USDA strains of equine piroplasm parasites (T. equi and B. caballi) were maintained in horse RBCs. […] For conducting the in vivo study, female BALB/c mice, aged six-week, obtained from CLEA Japan were infected with B. microti Munich strain [1]. […] GIT medium replenished with 40% horse serum was used as a growth medium for B. caballi parasite culture. To ensure free-bacterial contamination, all medium was supplemented with amphotericin B (0.15 μg/mL) (Sigma-Aldrich, USA), streptomycin (60 U/mL) and penicillin G (60 U/mL). The Babesia fluorescent assay was carried out on the in vitro culture as previously reported elsewhere. […] On day four of culture, an aliquot (100 μL) of lysis buffer was added to 0.2 μL/mL SG1 per well; subsequently, it was covered with aluminum foil to prevent exposure to light. After a 6-h incubation at 37 °C, fluorescence readings were acquired on a spectrofluorimeter (Fluoroskan Ascent, Thermo Fisher Scientific, USA) with a 485 nm excitation wavelength and a 518 nm emission wavelength. The IC50 values of the two extracts, DMA and ATV were established from the in vitro growth inhibition by nonlinear regression curve fit on a GraphPad Prism (GraphPad Software Inc., USA). While for in vivo, the significant variations (p < 0.05) among group mean values on parasitemia and one-way ANOVA Tukey's test in GraphPad Prism version 5.0 was used to analyze hematology profiles in mice infected with B. microti.

B. bovis = experiment: as above; format: cell-based; conditions: for IC50: B. bovis, in vitro, 4 days
Text: as §1

B. caballi = experiment: as above; format: cell-based; conditions: for IC50: B. caballi, in vitro, 4 days
Text: as §1

B. divergens = experiment: as above; format: cell-based; conditions: for IC50: B. divergens, in vitro, 4 days
Text: as §1

T. equi = experiment: as above; format: cell-based; conditions: for IC50: T. equi, in vitro, 4 days
Text: as §1

[1] = test system: Madin–Darby bovine kidney (MDBK) cells; experiment: Cytotoxicity assay on normal cells (CCK-8); format: cell-based; conditions: MDBK cell viability, 24 h
Method: (§2) Cultures of Human foreskin fibroblast (HFF; HFF-1 ATCC® SCRC-1041™), Madin–Darby bovine kidney (MDBK; ECACC) and mouse embryonic fibroblast (NIH/3 T3; ATCC® CRL-1658™) cells were retrieved from − 80 °C stock and cultured continuously at 37 °C under atmosphere 5% CO2 in our laboratory. The NIH/3 T3 and HFFs cells were preserved in Dulbecco Modified Eagle’s Medium (DMEM; Gibco, Grand Island, NY, USA), while MDBK cell line grown in Minimum Essential Medium Eagle (MEM; Gibco). All mediums were treated with 2 mM glutamine, 0.5% penicillin/streptomycin (Gibco) and 10% inactivated fetal bovine serum. Every 72 to 96 h, the medium was replaced, and once 80% confluence was reached, the cell collection was performed by sub-culture protocol. To confirm the absence of mycoplasma contamination, 4, 6-diamidino-2-phenylindole dihydrochloride (Sigma-Aldrich, USA) stain was used.
(§3) The cell viability test was conducted in a 96-well plate as described elsewhere. Briefly, an aliquot of (100 μL) cells was implanted at 5 × 10^4 cells/mL in DMEM or MEM with fetal bovine serum and incubated overnight under atmosphere 5% CO2 at 37 °C for attachment. Using two-fold dilutions, aliquots (10 μL) of herbal extracts and reference drugs were added in triplicate per well and further incubated for 24 h. The positive control wells containing cells mixed with the medium in 0.4% DMSO, whereas the negative control wells containing culture medium only. After a 24-h incubation, Cell Counting Kits-8 (CCK-8) (10 μL) was added per well and then plate incubation was conducted for an additional 3 h and a microplate reader was used to assess the absorbance at 450 nm.

[2] = test system: human foreskin fibroblast (HFF) cells; experiment: Cytotoxicity assay on normal cells (CCK-8); format: cell-based; conditions: HFF cell viability, 24 h
Method: as §2, §3

[3] = test system: mouse embryonic fibroblast (NIH/3 T3) cells; experiment: Cytotoxicity assay on normal cells (CCK-8); format: cell-based; conditions: 24 h
Method: as §2, §3

B. microti = experiment: Chemotherapeutic effects against B. microti in infected BALB/c mice; format: in vivo
Method: For the in vitro experiments, a German strain B. divergens, Argentine strain B. bigemina, Texas strain B. bovis, were cultivated in cattle RBCs, while USDA strains of equine piroplasm parasites (T. equi and B. caballi) were maintained in horse RBCs. The parasite incubation occurred at 37 °C in a humidifying chamber under 90% N2, 5% O2, and 5% CO2 atmosphere using a microaerophilic stationary-phase culture. For conducting the in vivo study, female BALB/c mice, aged six-week, obtained from CLEA Japan were infected with B. microti Munich strain [1].
Twenty-five mice were placed in an environment free from pathogens with 22 °C temperature and adjusted humidity and under 12 h light and 12 h darkness and randomly distributed into five groups. The mice in groups 2 through 5 were obtained 500 μL of 1 × 10^7B. microti iRBC by intraperitoneal (i.p.) injection. Group 1 served as a negative control and was neither infected nor treated. At 1% parasitemia, drug treatment of the mice by i.p. started, continuing for 5 days. Group 2 act as a positive control group and received 95% DDW and 5% DMSO. […] The drug administration lasted for 5 days starting from the fourth day to the eighth day post-infection (p.i.), and parasitemia was checked by preparing Giemsa-stained smears every 2 days in about 2000 RBCs by microscopy until day 32 post-infection (p.i.). Furthermore, the hematological parameters, including hemoglobin (HGB), RBCs, and HCT, were determined by an automatic hematology analyzer (Celltac α MEK-6450, Nihon Kohden, Japan) every 4 days. After finishing the in vivo experiment, an anesthetic system using an inhaler containing isoflurane was used to euthanize all mice by placing them in the induction chamber, adjusting the oxygen flowmeter to 0.8 to 1.5 L/min and vaporizer to 3 to 5%. […]

Leishmania = test system: Leishmania; parameters: method as in PMID 28968213; conditions: cited from earlier work

## O=C1C(O)=C([C@H]2CC[C@H](c3ccc(Cl)cc3)CC2)C(=O)c2ccccc21 [ATV, atovaquone]
B. bigemina; 96 h, read-out: IC50
  IC50: 0.26 ± 0.03 µg/mL (≈ 0.709 µM)
B. bigemina; EC50 HFF / IC50 B. bigemina
  Selective indices HFF: ˃ 384.6
B. bigemina; EC50 MDBK / IC50 B. bigemina
  Selective indices MDBK: ˃ 384.6
B. bigemina; EC50 NIH/3 T3 / IC50 B. bigemina
  Selective indices NIH/3 T3: ˃ 384.6
B. bovis; Bos taurus, 96 h, read-out: IC50
  IC50: 0.015 ± 0.001 µg/mL (≈ 0.0409 µM)
B. bovis; EC50 HFF / IC50 B. bovis
  Selective indices HFF: ˃ 6666.7
B. bovis; EC50 MDBK / IC50 B. bovis
  Selective indices MDBK: ˃ 6666.7
B. bovis; EC50 NIH/3 T3 / IC50 B. bovis
  Selective indices NIH/3 T3: ˃ 6666.7
B. caballi; Babesia caballi, 96 h, read-out: IC50
  IC50: 0.038 ± 0.01 µg/mL (≈ 0.104 µM)
B. caballi; EC50 HFF / IC50 B. caballi
  Selective indices HFF: ˃ 2631.6
B. caballi; EC50 MDBK / IC50 B. caballi
  Selective indices MDBK: ˃ 2631.6
B. caballi; EC50 NIH/3 T3 / IC50 B. caballi
  Selective indices NIH/3 T3: ˃ 2631.6
B. divergens; 96 h, read-out: IC50
  IC50: 0.014 ± 0.002 µg/mL (≈ 0.0382 µM)
B. divergens; EC50 HFF / IC50 B. divergens
  Selective indices HFF: ˃ 7142.9
B. divergens; EC50 MDBK / IC50 B. divergens
  Selective indices MDBK: ˃ 7142.9
B. divergens; EC50 NIH/3 T3 / IC50 B. divergens
  Selective indices NIH/3 T3: ˃ 7142.9
T. equi; 96 h, read-out: IC50
  IC50: 0.035 ± 0.01 µg/mL (≈ 0.0954 µM)
T. equi; EC50 HFF / IC50 T. equi
  Selective indices HFF: ˃ 2857.1
T. equi; EC50 MDBK / IC50 T. equi
  Selective indices MDBK: ˃ 2857.1
T. equi; EC50 NIH/3 T3 / IC50 T. equi
  Selective indices NIH/3 T3: ˃ 2857.1
[1]; Bos taurus
  EC50: > 100 µg/mL
[2]; Homo sapiens
  EC50: > 100 µg/mL
[3]; Mus musculus, NIH3T3, NIH/3 T3 cell viability
  EC50: > 100 µg/mL

## CC(=O)NCC(=O)O.CC(=O)NCC(=O)O.N=C(N)c1ccc(N=NNc2ccc(C(=N)N)cc2)cc1 [DMA, diminazene aceturate]
B. bigemina
  IC50: 0.11 ± 0.01 µg/mL
B. bovis
  IC50: 0.25 ± 0.02 µg/mL
B. caballi
  IC50: 0.003 ± 0.001 µg/mL
B. divergens
  IC50: 0.35 ± 0.03 µg/mL
T. equi
  IC50: 0.37 ± 0.01 µg/mL
[1]
  EC50 MDBK: ˃ 100 μg/mL
[2]
  EC50 HFF: ˃ 100 μg/mL
[3]; NIH/3 T3 cell viability
  EC50 NIH/3 T3: ˃ 100 μg/mL
B. microti; 25 mg kg−1, eighth day p.i., mice
  Restriction of the parasitemia level: 93.2%
B. microti; 25 mg kg−1 intraperitoneally for 5 days, 8 days p.i., BALB/c mice
  Level of parasitemia: 3.9%
B. microti; B. microti-infected mice
  Anemia development in mice: prohibited anemia development

## O=C/C=C/c1ccccc1 [cinnamaldehyde]
Leishmania
  IC50 antileishmanial effect: 0.681 µg/mL (≈ 5.15 µM)

## C=CCc1ccc(O)c(OC)c1 [eugenol]
Leishmania
  IC50 antileishmanial effect: 1.43 µg/mL (≈ 8.68 µM)

Reference: paper PMC7077018, “Gas chromatography-mass spectrometry analysis, phytochemical screening and antiprotozoal effects of the methanolic Viola tricolor and acetonic Laurus nobilis extracts” (BMC Complementary Medicine and Therapies, 2020)
